Format in all cases: in vivo
One test has as its system Stellaria media. The experiment in a line: Herbicidal screen, post-emergence spray of seedlings in pots: Chickweed. The settings on record: Stellaria media, post-emergence, 240 h, assessed 10 days after treatment, read-out: percentage increase in necrosis relative to the control. An outline of the steps: (§1)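 Seedlings were sprayed post-emergence two weeks after sowing, at 100, 50, 25 and 12.5 g/ha, with water controls and three replicates. Pots were held at 20 °C and scored 10 days after treatment on % plants showing growth. Necrosis increase over control was banded: d none, c 0.1-50, b 50-80, a 80-100.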

For a further test, the system named is four weed species. The experiment in a line: Herbicidal screen, summary across the four weed species. The settings on record: summary in words, 12.5-100 g/ha. As for the experimental part: Compounds were screened at four concentrations (100, 50, 25 and 12.5 g/ha) against four weed species (Stellaria media—Chickweed; Abutilon theophrasti—velvetleaf; Amaranthus retroflexus—common amaranthus; Echinochloa crus-galli—Barnyard grass) and maize as a crop species. Seed were sown in 12.5 cm diameter pots (20 per pot for the weed species and 5 for maize). Seedlings were sprayed with 2 ml of compound two weeks after sowing, with 2 ml water used as the control. Each treatment was replicated three times. Plants were maintained at 20° C. and assessed 10 days after treatment. The assessment was based on the % plant in each pot showing growth. The data is presented in Table 1 in which d represents no detected effect at this concentration; c represents a percentage increase in necrosis relative to the control of 0.1-50; b represents a percentage increase in necrosis of 50-80; and a represents a percentage increase in necrosis of 80-100.

In a further test the test system is Abutilon theophrasti. Nature of the test: Herbicidal screen, post-emergence spray of seedlings in pots: velvetleaf. The settings on record: Abutilon theophrasti, post-emergence, 240 h, assessed 10 days after treatment, read-out: percentage increase in necrosis relative to the control. In short, it runs like this:
as §1

In a further test the test system is Echinochloa crus-galli. Nature of the test: Herbicidal screen, post-emergence spray of seedlings in pots: Barnyard grass. The settings on record: Echinochloa crus-galli, post-emergence, 240 h, assessed 10 days after treatment, read-out: percentage increase in necrosis relative to the control. An outline of the steps:
as §1

Another test deals with Amaranthus retroflexus. The experiment in a line: Herbicidal screen, post-emergence spray of seedlings in pots: common amaranthus. The settings on record: Amaranthus retroflexus, post-emergence, 240 h, assessed 10 days after treatment, read-out: percentage increase in necrosis relative to the control. An outline of the steps: as §1
Another test has as its system maize. The experiment in a line: Herbicidal screen, post-emergence spray of seedlings in pots: crop species. The settings on record: Zea mays, post-emergence, 240 h, assessed 10 days after treatment, read-out: percentage increase in necrosis relative to the control. An outline of the steps:
as §1

Molecules are shown by their SMILES.

`Cn1c(C(F)(F)F)cc(=O)n(-c2cc(C(=O)NS(=O)(=O)C3CCCCC3)c(Cl)cc2F)c1=O` [Example 14, 2-Chloro-N-(cyclohexylsulfonyl)-4-fluoro-5-(3-methyl-2,6-dioxo-4-(trifluoromethyl)-3,6-dihydropyrimidin-1(2H)-yl)benzamide]: in the test with Stellaria media, the pest or weed control at 12.5 g/ha is 0.1 to 50%, the pest or weed control at 25 g/ha lay within 0.1 to 50%, the pest or weed control at 50 g/ha lay within 50 to 80% and the pest or weed control at 100 g/ha was in the range of 80 to 100%. In addition, the “herbicidal activity against the weed species” value (“herbicidal activity” for short) in the test on four weed species was “good activity across several of the weed species”. In the test with Abutilon theophrasti, the pest or weed control at 12.5 g/ha is 50 to 80%, the pest or weed control at 25 g/ha lay in the range of 50 to 80%, the pest or weed control at 50 g/ha lay within 80 to 100% and the pest or weed control at 100 g/ha lay in the range of 80 to 100%. Besides, in the test on Echinochloa crus-galli, the pest or weed control at 12.5 g/ha was 0.1 to 50%, the pest or weed control at 25 g/ha was in the range of 0.1 to 50%, the pest or weed control at 50 g/ha is 0.1 to 50% and the pest or weed control at 100 g/ha lay within 0.1 to 50%. Moreover, in the test on Amaranthus retroflexus, the pest or weed control at 12.5 g/ha is 80 to 100%, the pest or weed control at 25 g/ha lay in the range of 80 to 100%, the pest or weed control at 50 g/ha is 80 to 100% and the pest or weed control at 100 g/ha lay in the range of 80 to 100%. In the test with maize, the plant injury at 12.5 g/ha lay in the range of 0.1 to 50%, the plant injury at 25 g/ha lay in the range of 0.1 to 50%, the plant injury at 50 g/ha was 0.1 to 50% and the plant injury at 100 g/ha lay in the range of 0.1 to 50%.

For `Cn1c(C(F)(F)F)cc(=O)n(-c2cc(C(=O)NS(=O)(=O)C3(F)CC3)c(Cl)cc2F)c1=O` [Example 16, 2-Chloro-4-fluoro-N-((1-fluorocyclopropyl)sulfonyl)-5-(3-methyl-2,6-dioxo-4-(trifluoromethyl)-3,6-dihydropyrimidin-1(2H)-yl)benzamide], in the test on Stellaria media, the pest or weed control at 12.5 g/ha was in the range of 0.1 to 50%, the pest or weed control at 25 g/ha lay within 0.1 to 50%, the pest or weed control at 50 g/ha fell in the range of 0.1 to 50% and the pest or weed control at 100 g/ha was in the range of 80 to 100%. The “herbicidal activity” value in the test with four weed species is “good activity across several of the weed species”. Also, in the test with Abutilon theophrasti, the pest or weed control at 12.5 g/ha was 0.1 to 50%, the pest or weed control at 25 g/ha fell in the range of 0.1 to 50%, the pest or weed control at 50 g/ha fell in the range of 50 to 80% and the pest or weed control at 100 g/ha is 80 to 100%. For the same compound, in the test on Echinochloa crus-galli, the pest or weed control at 12.5 g/ha is 0.1 to 50%, the pest or weed control at 25 g/ha was in the range of 0.1 to 50%, the pest or weed control at 50 g/ha fell in the range of 50 to 80% and the pest or weed control at 100 g/ha fell in the range of 50 to 80%. Moreover, in the test on Amaranthus retroflexus, the pest or weed control at 12.5 g/ha fell in the range of 0.1 to 50%, the pest or weed control at 25 g/ha is 0.1 to 50%, the pest or weed control at 50 g/ha was in the range of 80 to 100% and the pest or weed control at 100 g/ha was in the range of 80 to 100%. Moreover, in the test on maize, the plant injury at 12.5 g/ha was 0.1 to 50%, the plant injury at 25 g/ha was 0.1 to 50%, the plant injury at 50 g/ha fell in the range of 0.1 to 50% and the plant injury at 100 g/ha is 0.1 to 50%.

Regarding `CCC1(S(=O)(=O)NC(=O)c2cc(-n3c(=O)cc(C(F)(F)F)n(C)c3=O)c(F)cc2Cl)CC1` [Example 17, 2-Chloro-N-((1-ethylcyclopropyl)sulfonyl)-4-fluoro-5-(3-methyl-2,6-dioxo-4-(trifluoromethyl)-3,6-dihydropyrimidin-1(2H)-yl)benzamide], in the test on Stellaria media, the pest or weed control at 12.5 g/ha lay within 0.1 to 50%, the pest or weed control at 25 g/ha lay in the range of 50 to 80%, the pest or weed control at 50 g/ha was in the range of 50 to 80% and the pest or weed control at 100 g/ha lay in the range of 80 to 100%. In addition, in the test on four weed species, the “herbicidal activity” value was “good activity across several of the weed species”. Also, in the test with Abutilon theophrasti, the pest or weed control at 12.5 g/ha lay within 0.1 to 50%, the pest or weed control at 25 g/ha lay within 0.1 to 50%, the pest or weed control at 50 g/ha fell in the range of 50 to 80% and the pest or weed control at 100 g/ha was in the range of 80 to 100%. Also, in the test on Echinochloa crus-galli, the pest or weed control at 12.5 g/ha was in the range of 0.1 to 50%, the pest or weed control at 25 g/ha lay in the range of 50 to 80%, the pest or weed control at 50 g/ha was in the range of 50 to 80% and the pest or weed control at 100 g/ha is 50 to 80%. In the test with Amaranthus retroflexus, the pest or weed control at 12.5 g/ha fell in the range of 0.1 to 50%, the pest or weed control at 25 g/ha was 50 to 80%, the pest or weed control at 50 g/ha was in the range of 80 to 100% and the pest or weed control at 100 g/ha was in the range of 80 to 100%. Besides, in the test on maize, the plant injury at 12.5 g/ha was in the range of 0.1 to 50%, the plant injury at 25 g/ha was in the range of 0.1 to 50%, the plant injury at 50 g/ha lay within 0.1 to 50% and the plant injury at 100 g/ha was 0.1 to 50%.

The values are drawn from US11634390B2, “Agricultural chemicals” (GLOBACHEM NV, priority 2016, dated 2023).
